Reference: article PMC8303187, “Anti-Inflammatory Effects of Compounds from Cudrania tricuspidata in HaCaT Human Keratinocytes” (International Journal of Molecular Sciences, 2021)

Key:
Format in all cases: cell-based, human
[1] = system: p38 phosphorylation in HaCaT cells; experiment: p38 phosphorylation in TNF-α + IFN-γ-treated HaCaT cells (Western blotting); conditions: HaCaT cells pretreated 3 h, then TNF-α + IFN-γ (20 ng/mL) 6 h; Western blot
Method: (§1) Stimulation of keratinocytes with TNF-α + IFN-γ upregulates various MAPK signaling pathways. To evaluate the anti-inflammatory effects of the six compounds from C. tricuspidata on the MAPK pathway, Western blotting analysis was used to determine the phosphorylation levels of JNK1/2, ERK1/2, and p38 in TNF-α + IFN-γ-treated HaCaT cells. Cells were pretreated with the six compounds from C. tricuspidata at the indicated concentrations for 3 h, and then stimulated with TNF-α + IFN-γ (20 ng/mL) for either 15 min, 2 h, or 6 h. Following the treatment with TNF-α + IFN-γ for 2 h, the phosphorylation of JNK1/2 was not inhibited by any of the six compounds (Figure 6A,B). After 15 min of treatment with TNF-α + IFN-γ, ERK1/2 phosphorylation was inhibited only by compound 14 (Figure 6C,D). The phosphorylation of p38 was inhibited only by compounds 13 and 4 after 6 h of treatment with TNF-α + IFN-γ (Figure 6E,F). […]
(§2) Figure 6 Effect of the six compounds from C. tricuspidata on JNK-1/2, ERK-1/2, and p38 phosphorylation in HaCaT cells. […] Cell extracts were analyzed using Western blotting and antibodies specific for phosphorylated JNK1/2 (p-JNK1/2), p-ERK1/2, or p-p38. […] Immunoblots were quantified using ImageJ software. The band intensity was quantified and normalized to each total protein concentration. * p < 0.05, ** p < 0.01, and *** p < 0.001 compared with TNF-α + IFN-γ only. […]

[2] = system: ICAM-1 protein expression in HaCaT cells; experiment: ICAM-1 protein expression in TNF-α + IFN-γ-treated HaCaT cells (Western blotting); conditions: HaCaT cells pre-incubated 3 h (5–80 μM), then TNF-α + IFN-γ (20 ng/mL) 6 h; Western blot
Text: ICAM-1 is expressed in keratinocytes and is critical for the development of many skin diseases, such as contact dermatitis and lichen planus. Cyclooxygenase (COX) is the enzyme responsible for the conversion of arachidonic acid to prostaglandin H2, which is the main step in the prostaglandin synthesis pathway. COX-2 expression plays a key role in skin inflammation. In this experiment, the anti-inflammatory effects of the six compounds from C. tricuspidata on the expression of pro-inflammatory proteins were investigated in TNF-α + IFN-γ-treated HaCaT cells. […] Previous studies have reported that compound 6 inhibits the expression of COX-2 [55]; however, this study is the first to report the inhibition of COX-2 protein production by compound 6 in HaCaT cells. […]
(§3) Figure 4 Protein expression levels of COX-2 (A,B) and ICAM-1 (C,D) in TNF-α + IFN-γ-treated HaCaT cells. […] The immunoblot was quantified using ImageJ software. […]
(§4) Cells were harvested and pelleted via centrifugation at 200× g for 3 min, washed with PBS, and lysed in 20 mM Tris-HCl buffer (pH 7.4) containing a protease inhibitor mixture (0.1 mM phenylmethanesulfonyl fluoride, 5 mg/mL aprotinin, 5 mg/mL pepstatin A, and 1 mg/mL chymostatin). The protein concentration was determined using a protein assay dye reagent concentrate (#5000006; Bio-Rad Laboratories, Hercules, CA, USA). […]

[3] = system: COX-2 protein expression in HaCaT cells; experiment: COX-2 protein expression in TNF-α + IFN-γ-treated HaCaT cells (Western blotting); conditions: HaCaT cells pre-incubated 3 h (5–80 μM), then TNF-α + IFN-γ (20 ng/mL) 24 h; Western blot
Text: ICAM-1 is expressed in keratinocytes and is critical for the development of many skin diseases, such as contact dermatitis and lichen planus. Cyclooxygenase (COX) is the enzyme responsible for the conversion of arachidonic acid to prostaglandin H2, which is the main step in the prostaglandin synthesis pathway. COX-2 expression plays a key role in skin inflammation. In this experiment, the anti-inflammatory effects of the six compounds from C. tricuspidata on the expression of pro-inflammatory proteins were investigated in TNF-α + IFN-γ-treated HaCaT cells. Briefly, cells were pre-incubated for 3 h with or without the six compounds from C. tricuspidata (5–80 μM) and were subsequently challenged with TNF-α + IFN-γ (20 ng/mL) for 24 h. […]
as §3, §4

[4] = system: ERK1/2 phosphorylation in HaCaT cells; experiment: ERK1/2 phosphorylation in TNF-α + IFN-γ-treated HaCaT cells (Western blotting); conditions: HaCaT cells pretreated 3 h, then TNF-α + IFN-γ (20 ng/mL) 15 min; Western blot
Method: as §1, §2

| SMILES | phosphorylation of p38 [1] | ICAM-1 expression [2] | expression level of COX-2 [3] | ERK1/2 phosphorylation [4] |
| --- | --- | --- | --- | --- |
| CC(C)=CCc1c(O)cc2c(c1O)C(=O)C[C@@H](c1ccc(O)cc1O)O2 [Compound 4, cudraflavanone B] | inhibited | – | – | – |
| CC(C)=CCc1c(O)cc2oc(-c3ccc(O)cc3O)c(CC=C(C)C)c(=O)c2c1O [Compound 6, cudraflavone C] | – | particularly effective | decreased | – |
| C=CC(C)(C)c1c(OC)cc2oc3cc(O)c(O)cc3c(=O)c2c1O [Compound 13, 1,6,7-trihydroxy-2-(1,1-dimethyl-2-propenyl)-3-methoxyxanthone] | inhibited | – | – | – |
| C=CC(C)(C)c1c(O)cc(O)c2c(=O)c3cc(O)c(O)cc3oc12 [Compound 14, cudratricusxanthone L] | – | particularly effective | decreased | inhibited |
